Earlier results as cited in patent US20260048172A1, “WOUND DRESSINGS” (ConvaTec Limited, priority 2023, published 2026).

## citric acid [citric/citrate]
Ka = 0.0000004
  pka (third): pka = 6.4
Ka = 0.0000200
  pka (second): pka = 4.7
Ka = 0.0007943
  pka (first): pka = 3.1
